Measurements taken from PubChem BioAssay (NCI).
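Following 48 hours of exposure in 96-well plates, responses at five concentrations were used to interpolate endpoints linearly. GI50 marks 50% less growth. At the TGI there is no net growth.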

Tests used:
Assay in all cases: NCI tumour cell line growth inhibition, 48 h
[1] = tested on: NCI-H23 lung
[2] = tested on: NCI-H460 lung
[3] = tested on: NCI-H522 lung
[4] = tested on: NCI/ADR-RES ovarian
[5] = tested on: OVCAR-3 ovarian
[6] = tested on: OVCAR-4 ovarian
[7] = tested on: OVCAR-5 ovarian
[8] = tested on: OVCAR-8 ovarian
[9] = tested on: PC-3 prostate
[10] = tested on: RPMI-8226 leukemia
[11] = tested on: RXF 393 renal
[12] = tested on: SF-268 CNS
[13] = tested on: SF-295 CNS
[14] = tested on: SF-539 CNS
[15] = tested on: SK-MEL-2 melanoma
[16] = tested on: SK-MEL-28 melanoma
[17] = tested on: SK-MEL-5 melanoma
[18] = tested on: SK-OV-3 ovarian
[19] = tested on: SN12C renal
[20] = tested on: SNB-19 CNS
[21] = tested on: SNB-75 CNS
[22] = tested on: SR leukemia
[23] = tested on: SW-620 colon
[24] = tested on: T-47D breast
[25] = tested on: TK-10 renal
[26] = tested on: U251 CNS
[27] = tested on: UACC-257 melanoma
[28] = tested on: UACC-62 melanoma
[29] = tested on: UO-31 renal

SMILES: CN1CCN(Cc2ccc(NC(=O)c3cncc(C#Cc4c(N)ncc5ccc(C#N)cc45)c3)cc2C(F)(F)F)CC1
- GI50 [1]: 1020 nM
- TGI [1]: 3600 nM
- GI50 [2]: 878 nM
- TGI [2]: 1770 nM
- GI50 [3]: 748 nM
- TGI [3]: 2010 nM
- GI50 [4]: 1110 nM
- TGI [4]: 2630 nM
- GI50 [5]: 3610 nM
- TGI [5]: 14300 nM
- GI50 [6]: 558 nM
- TGI [6]: 1370 nM
- GI50 [7]: 813 nM
- TGI [7]: 1610 nM
- GI50 [8]: 926 nM
- TGI [8]: 1870 nM
- GI50 [9]: 891 nM
- TGI [9]: 1750 nM
- GI50 [10]: 1010 nM
- TGI [10]: 2470 nM
- GI50 [11]: 1080 nM
- TGI [11]: 2880 nM
- GI50 [12]: 910 nM
- TGI [12]: 1890 nM
- GI50 [13]: 8670 nM
- TGI [13]: 18000 nM
- GI50 [14]: 760 nM
- TGI [14]: 3070 nM
- GI50 [15]: 2440 nM
- TGI [15]: 9560 nM
- GI50 [16]: 350 nM
- TGI [16]: 1100 nM
- GI50 [17]: 785 nM
- TGI [17]: 1540 nM
- GI50 [18]: 8270 nM
- TGI [18]: 17500 nM
- GI50 [19]: 2970 nM
- TGI [19]: 7350 nM
- GI50 [20]: 952 nM
- TGI [20]: 1790 nM
- GI50 [21]: 2290 nM
- TGI [21]: 4540 nM
- GI50 [22]: 547 nM
- TGI [22]: 2570 nM
- GI50 [23]: 696 nM
- TGI [23]: 1530 nM
- GI50 [24]: 1230 nM
- TGI [24]: 5850 nM
- GI50 [25]: 969 nM
- TGI [25]: 1870 nM
- GI50 [26]: 864 nM
- TGI [26]: 1670 nM
- GI50 [27]: 483 nM
- TGI [27]: 1780 nM
- GI50 [28]: 668 nM
- TGI [28]: 1420 nM
- GI50 [29]: 971 nM
- TGI [29]: 1730 nM
